Patent publication US20260137091A1, “NEW PEPTIDES AND THE USE OF SAME FOR MODULATING ACCUMULATION OF A PROTEIN” (priority 2022, published 2026)

Tested on: NSP1-GUS fusion protein
Test: Quantification of GUS activity in roots expressing an NSP1-GUS fusion after cPEP treatment
Format: in vivo
Conditions: Medicago truncatula transformed roots; treatment for 5 days with 0.1 μM cPEP by spraying; versus control (water)
Experimental: The y-axis represents the quantification of GUS activity in the roots of an NSP1-GUS fusion in response to treatment for 5 days with 0.1 μM of a cPEP targeting the 5′UTR region of the NSP1 gene. Error bars represent SEM, asterisks indicate a significant difference between test condition and control according to Student's t-test (n=30, p<0.05).
NSP1::GUS fusion was achieved, using a modified pCambia vector (Lauressergues et al., Nature, 520: 90-3, 2015), by cloning 3 kb of NSP1 promoter, the NSP1 gene coding sequence, the GUS protein coding sequence and 3 kb of the NSP1 gene downstream sequence (FIG. 2).
Root transformation of M. truncatula was carried out using the method described in Boisson-Dernier et al, Mol Plant Microbe Interact, 14(6): 695-700, 2001.
Plants were treated by spraying with a solution containing a low concentration of cPEPs (from 0.1 μM to 10 μM) or with water.
The accumulation of the protein targeted by cPEP was then measured in each plant by quantifying GUS activity or by quantifying protein activity by Western blot (Blizquez M., Quantitative GUS activity assay in intact plant tissue, Cold Spring Harbor Laboratory Press, Cold Spring Harbor, NY, USA, 2002).

| Substance | accumulation of the NSP1 protein (quantification of GUS activity in the roots of an NSP1-GUS fusion) |
| --- | --- |
| SEQ ID NO: 162: cPEP (11 amino acids) translated from a fragment of the 5′UTR of NSP1 pre-mRNA, +3 reading frame (KPFKFSSSISH; NSP1-5UTR-11) | increase in the accumulation of the NSP1 protein |
| SEQ ID NO: 164: cPEP (10 amino acids) translated from a 30 nucleotide fragment of the 3′UTR of NSP1 pre-mRNA, +2 reading frame (CHHDEVISPQ; NSP1-3UTR) | increase in the accumulation of the NSP1 protein |
